Data published in patent US20090264382A1, “Methods for Treating Hematopoietic Neoplasms” (priority 2007, published 2009).

Experiments:
[1] = Bone marrow toxicity, serial complete blood counts; type: in vivo, CD1 mice; settings: 25 mg/kg subcutaneously every other day for 4 weeks
Experimental: Eight week-old sex matched CD1 mice (Jackson Laboratory, Bar Harbor, Me.) were treated with CA4P at 25 mg/kg subcutaneously every other day for 4 weeks.

[2] = tested on: GFP+HL60 cells; assay: Systemic in vivo leukemia model, GFP+HL60; set-up: species or system NOD-SCID mice
Experimental: NOD-SCID mice were intravenously inoculated with 1×10^7 GFP+HL60 cells. The HL60 cells were labeled with green fluorescent protein (GFP) by a lentiviral construct, and inoculated systemically through tail vein injection. Three days after inoculation, mice were divided into 2 groups of five mice. One group was treated every other day with PBS (control) and the second group received 25 mg/kg CA4P every other day. Each experiment was done three times. At day 30 after the start of the experiment, two mice from each group were killed, and their organs (spleen, liver and lung), peripheral blood and marrow of surgically removed femurs were collected, and analyzed for the presence of human leukemic cells by flow cytometry. Single cell suspension was stained using phytoerythrin-labeled anti-human CD45 mAb (Pharmingen), and the percentage of double positive human CD45-PE and GFP cells was determined flow cytometer. The extent of GFP+HL60 cell infiltration was assessed by fluorescence microscopy. In a second set of experiments, GFP+U937 cells were used instead of HL60 cells, and the animals sacrificed after 30 days.
In the untreated control group, the mice survived for 32-40 days only and succumbed to systemic spread of leukemia. […] This increase in survival was accompanied by a decrease in circulating leukemic cells observed 30 days after leukemic cell injection, as assessed by flow cytometry determination of double positive cells for human CD45 and GFP (0.9% for control vs. 0.2% for CA4P treatment, p<0.05, n=5) (FIG. 12). Thirty days after xenotransplantation of GFP+HL60 cell injection, the presence of GFP+HL60 cells in the peripheral blood and the different tissues of the mice was assessed by quantification of double positive GFP and human CD45 cells by flow cytometry. […] In contrast, control mice had massive leukemic infiltrates in the spleen (5.2%), liver (2.6%) and lung (3.5%) (FIG. 12).

[3] = tested on: VCAM-1; assay: IL-1β-induced VCAM-1 expression in HUVECs, flow cytometry; type: cell-based, human; settings: 1 to 5 nM
Experimental: Human umbilical vein endothelial cells (HUVECs) were activated with IL-1β (5 ng/ml) for 24 hours with CA4P added at concentrations from 0 to 5 nM. VCAM-1 expression was determined by flow cytometry with phytoerythrin-conjugated anti-CD106 (VCAM-1) mAb.

[4] = tested on: AML cell lines; assay: Annexin-V/propidium iodide apoptosis by flow cytometry; type: cell-based, human; settings: 48 hours
Experimental: CA4P-treated AML cells were subjected to Annexin-V/propidium iodide (PI) staining and quantification by flow cytometry. Combretastatin A-4 phosphate (CA4P) induces caspase-independent apoptosis in leukemic cells. CA4P induces apoptosis of leukemic cells. Leukemic cells were treated with or without CA4P for 48 hours and the percentage of apoptotic leukemic cells was determined by Annexin V and propidium iodide staining using flow cytometry. Results are representative of three independent experiments. […] In the majority of AML cell lines tested, CA4P at a concentration of 5 nM induced phosphatidylserine externalization (Annexin V+) in more than 50% of the leukemic cells.

[5] = tested on: VCAM-1; assay: VCAM-1 immunofluorescence in subcutaneous HL60 AML tumors; type: in vivo, NOD-SCID mice; settings: data not shown
Experimental: CA4P may modulate leukemia-vascular interactions, thereby disrupting chemo-protected niches for leukemic cells. […] NOD-SCID mice with subcutaneous HL60 AML tumors were treated with CA4P or PBS (untreated control).

[6] = tested on: KG1a leukemic cells; assay: Release of nuclear HMG1 protein into supernatant (necrosis marker), Western blot; type: cell-based, human; settings: 24 hours, CA4P 20 mM, staurosporine 100 μM as printed
Experimental: Nonetheless, to rule out the possibility that CA4P may trigger necrotic cell death in subsets of the leukemic cells, the release of nuclear HMG1 protein into the culture supernatant, which has been described as a sensitive and highly specific marker for necrotic cell death (Scaffidi, et al. 2002. Nature 418, 191-5), was quantified. For detection of HMG1 protein, KG1a leukemic cells (1×106 in 2 ml X-vivo/5% FBS) were incubated with 100 μM staurosporine to induce apoptosis, freeze-thawed three times to induce necrosis, or treated with 20 mM CA4P for 24 hours. Cells were spun down, pelleted and the supernatant subjected to Western blot for HMG135.

[7] = tested on: leukemic cells; assay: Comet assay for DNA damage; type: cell-based, human; settings: after CA4P treatment
Experimental: DNA damage in CA4P-incubated leukemic cells was assessed by comet assay. The concept behind this assay is based upon the ability of denatured, cleaved DNA fragments to migrate out of the cell under the influence of an electric field, whereas undamaged DNA migrates more slowly and remains within the confines of the nucleus. Evaluation of the DNA “comet” tail shape and migration pattern allows for assessment of DNA damage. Results were expressed as the percentage of cells with a comet tail in 100 randomly selected, non-overlapping cells visualized by standard light microscopy. […] Results of three experiments in duplicate are expressed as the mean of the number of cells with a comet tail (%)±SEM (*p<0.05 as compared with CA4P-untreated cells; n=3).

[8] = tested on: KG1a leukemic cells; assay: Cell cycle analysis with propidium iodide; type: cell-based, human; settings: 5 and 10 nM, 48 hours
[9] = tested on: HL60 and U937 AML cells on HUVECs; assay: Leukemic cell adhesion to and co-culture with HUVECs; type: cell-based, human
Experimental: To assess leukemic cell adhesion, 1×10^5 GFP+HL60 or U937 cells in X-vivo/5% FBS were added per well. The percentage of GFP++adherent cells was quantified by fluorescent microscopy. To compare the resistance of vascular-adherent to non-adherent leukemic cells in co-culture, leukemic cells were seeded on either IL-1β-activated or non-activated HUVECs, with addition of CA4P. After 48 hours, GFP++leukemic cells were removed from the wells by trypsinization and quantified by fluorescence microscopy and flow cytometry. […] The number of adherent cells is expressed as a percentage of total leukemic cells and representative of three independent experiments performed in triplicate SEM (*p<0.05 as compared to CA4P-untreated control).
Survival of GFP+U937 (E) and HL60 (F) leukemic cells co-cultured with HUVECs is expressed as a percentage of total cells. Adherent (i.e. attached to IL-1β activated HUVECs) and non-adherent leukemic cells (i.e. cultured with non-activated HUVECs) are depicted. Results are representative of three independent experiments performed in triplicate±SEM (*p<0.05).

[10] = day 30, 25 mg/kg every other day

## COc1ccc(/C=C\c2cc(OC)c(OC)c(OC)c2)cc1OP(=O)(O)O [CA4P, combretastatin A-4 phosphate]
[1]
  WBC and absolute neutrophil count: slight decrease
[2]; 25 mg/kg every other day
  survival of intravenously xenotransplanted mice: significantly increased survival
[2]; [10]
  circulating leukemic cells (human CD45 and GFP double positive) in peripheral blood: 0.2%
  engraftment of leukemic cells in the bone marrow: completely eradicated
  human CD45 and GFP positive cells in the liver: 0.1%
  infiltration of GFP+HL60 cells in the lung: no evidence of infiltration
  infiltration of GFP+HL60 cells in the spleen: no evidence of infiltration
[3]
  apoptosis of HUVECs: without inducing apoptosis
[3]; 24 hours, IL-1β 5 ng/ml
  VCAM-1 expression on IL-1β-activated HUVECs: significantly reduced expression of VCAM-1
[4]; 5 nM, majority of AML cell lines tested
  leukemic cells with phosphatidylserine externalization (Annexin V+): more than 50%
[4]
  PI+, Annexin V(−) cells (necrotic): Only a small number
[5]
  VCAM-1 expression in tumors: significantly decreased VCAM-1 expression
[6]
  release of nuclear HMG1 protein into the supernatant: not
[7]
  number of leukemic cells displaying a comet tail: strongly increased
[8]
  cell cycle effect: G2/M arrest
[9]; in vitro
  attachment of HL60 and U937 AML cells to HUVECs: decreased attachment
[9]; non-adherent vs adherent to IL-1β activated HUVECs, 48 hours
  sensitivity of leukemic cells to CA4P with decreased adhesion to HUVECs: more sensitive
